Where two headings read alike, the source gives them in different places. Where a SMILES comes first, the peptide text is derived from it. [ ]: non-standard residue; d: D form. The star is where a group is joined. ξ: configuration not given here. Ala(6-(2-MePh)pyridin-3-yl) = Cc1ccccc1-c1ccc(C[C@H](N)C(=O)O)cn1; Phe(4-(2-Et-4-HO-Ph)) = CCc1cc(O)ccc1-c1ccc(C[C@H](N)C(=O)O)cc1; Bip(2'-Et-4'-OMe) = CCc1cc(OC)ccc1-c1ccc(C[C@H](N)C(=O)O)cc1; αMePhe(2-F) = C[C@](N)(Cc1ccccc1F)C(=O)O; ξαMePhe(2-F) = CC(N)(Cc1ccccc1F)C(=O)O; ξαMeP = CC1(C(=O)O)CCCN1; Aib = CC(C)(N)C(=O)O; Moc = COC(=O)*
Columns and labels:
[1] = Exposure during ipGTT in ob/ob mice; assay type: in vivo; conditions: sc
Procedure: (§1) Peptides were dissolved in an appropriate vehicle at a concentration in nmol/ml equivalent to the dose that was to be administered in nmol/kg so that each mouse would receive the same volume/weight of dosing solution. Male C57BL/6J-ob/ob mice (10 weeks old) were randomized into groups of 6 mice per group based on fed plasma glucose and body weight. After an overnight fast, mice were weighed and placed in the experimental lab. After 30 min in the environment, the mice were bled via tail tip at −30 min and immediately injected subcutaneously (sc) with vehicle or the peptide dissolved in vehicle (0.1 ml solution/100 g body weight). At time 0 the mice were bled and then injected intraperitoneally with 50% glucose (2 g/kg) to initiate the intraperitoneal glucose tolerance test (ipGTT). The mice were bled 30, 60, 120 and 180 min after the glucose injection. Blood samples were drawn into potassium EDTA, placed on ice during the study and subsequently centrifuged for 10 min at 3000 rpm at 4° C. Plasma samples were diluted 11-fold for glucose analysis in the Cobas System. Another 5 μl plasma sample was diluted 5-fold with 20 μl of Sample Diluent (Insulin ELISA assay kit, Crystal Chem Inc.) and stored at −20° C. for subsequent analysis using the Ultra Sensitive Mouse Insulin ELISA kit (Crystal Chem Inc.).

ob/ob mice = assay: intraperitoneal glucose tolerance test (ipGTT) after sc injection in ob/ob mice (plasma glucose, insulin); assay type: in vivo; conditions: for effect on postprandial plasma glucose (in words): sc, ipGTT 0-180 or 210 min; for Potency in ob/ob mice, ED50: sc injection, ipGTT, plasma glucose AUC
Procedure: as §1

[2] = Solubility of compound of SEQ ID NO:9 in the presence of Zn(II) / Zn adduct; assay type: physicochemical; conditions: pH 6.8, 50 mM phosphate buffer
Procedure: Once the Zn/Compound of SEQ ID NO:9 adduct was formed, formulation development studies were conducted in order to evaluate the solubility of the compound of SEQ ID NO:9 in the presence of Zn(II). An excess amount of the compound of SEQ ID NO:9 was suspended in pH 6.8, 50 mM phosphate buffer. The suspension was then placed on an orbital shaker (Model, 100 RPM) at ambient temperature for 12 hours. The suspension was then centrifuged (Model, speed) and the saturated the clear supernatant of the compound of SEQ ID NO:9 was collected into 10 ml centrifuge tubes. A predetermined amount of zinc acetate solution (50 mM, pH 6.8 phosphate buffer) was added into the saturated solution and then precipitated. The concentration of the compound of SEQ ID NO:9 in solution was obtained by centrifuging the suspension and analyzing the clear supernatants by HPLC.
To confirm that the Zn/Compound of SEQ ID NO:9 binding is reversible, the Zn/Compound of SEQ ID NO:9 adduct was suspended in pH 6.8, 50 mM phosphate buffer. A strong chelating agent for Zn(II), EDTA, was added into the suspension in excess amount. The Zn/Compound of SEQ ID NO:9 suspension with and without EDTA was centrifuged and the supernatants were injected into HPLC.

[3] = Dog pharmacokinetic study (iv and sc, solution vehicles); assay type: in vivo; conditions: for AUC: read-out: AUCtot; for half-life: read-out: t½ (converted)
Procedure: The pharmacokinetic parameters of the compound of SEQ ID NO:9 were determined in male beagle dogs (n=4, 14±1 kg). Following an overnight fast, each animal received the compound of SEQ ID NO:9 either as an intravenous bolus via femoral vein (67 μg/kg) or by subcutaneous injection given at near the shoulder blades (67 μg/kg). Each animal received both intravenous and subcutaneous doses with a one-week washout between doses following a crossover design. […] Serial blood samples were collected in EDTA-containing microcentrifuge tubes at predose, 0.083, 0.25, 0.5, 0.75, 1, 2, 4, 6, 8, 24, and 30 hours post-dose after intravenous administration; at predose, 0.25, 0.5, 0.75, 1, 2, 4, 6, 8, 24, and 30 hours post-dose after subcutaneous administration. Approximately 0.3 mL of blood was collected at each time point. Blood samples were immediately centrifuged at 4° C. The obtained plasma was frozen with dry ice and stored at −20° C. Plasma drug levels were determined using the LC-MS/MS assay described above.
Plasma samples from in vivo dog study were prepared for analysis by precipitating plasma proteins with two volumes of acetonitrile containing an internal standard. The samples were vortex mixed and removed the precipitated proteins by centrifugation. The resulting supernatants were transferred to a 96-well plate and 10 μL were injected for analysis. Samples were prepared with the Packard Multiprobe II and Quadra 96 Liquid Handling System.
The HPLC system consisted of two Shimadzu LC10AD pumps (Columbia, Md.), a CTC PAL autosampler (Leap Technologies, Switzerland). The column used was a YMC Hydrosphere C18 (2.0×50 mm, 3 μm) (YMC, Inc., Milford, Ma.). The column temperature was maintained at 50° C. and the flow rate was 0.3 mL/minute. The mobile phase A consisted of 10 mM ammonium formate and 0.1% formic acid in water and mobile phase B consisted of 0.1% formic acid in acetonitrile. The initial mobile phase composition was 5% B, and remained at 5% B for one minute to equilibrate the column. The composition was ramped to 95% B over two minutes and held there for one additional minute. The mobile phase was then returned to initial conditions in one minute. Total analysis time was five minutes. A switching valve was used. The eluents between 0-1 minute were diverted to the waste.
The HPLC was interfaced to a Sciex API 4000 mass spectrometer, (Applied Biosystems, Foster City, Calif.) and was equipped with a TurboIonspray ionization source. Ultra high purity nitrogen was used as the nebulizing and turbo gas. The temperature of turbo gas was set at 300° C. and the interface heater was set at 60° C. Data acquisition utilized selected reaction monitoring (SRM). Ions representing the (M+2H)^2+ species for the compound of SEQ ID NO:9, and (M+2H)^2+ for BMS-501143 (IS) were selected in Q1 and were collisionally dissociated with high purity nitrogen at a pressure of 3.5×10^−3torr to form specific product ions which were subsequently monitored by Q3.
The standard curve concentrations, ranging from 1 to 1000 nM and from 4 to 5000 nM, were used for the in vivo samples obtained from low and high doses, respectively. The curves were fitted with a quadratic regression weighted by reciprocal […]. Standards were analyzed in duplicate. Quality control (QC) samples, prepared in blank matrix at the same concentrations as the standard were also analyzed in each analytical set. For the compound of SEQ ID NO:9, the calculated concentrations of more than 80% of the QCs were within 20% of nominal concentration, indicating acceptable assay performance.
The compound of SEQ ID NO:9 plasma concentration vs. time data were analyzed by noncompartmental methods using the […]™ software program. The Cmax and Tmax values were recorded directly from experimental observations. The AUC0-n and AUCtot values were calculated using a combination of linear and log trapezoidal summations. […]

[4] = Solubility of protamine/Compound of SEQ ID NO:9 adduct and in protamine solution; assay type: physicochemical; conditions: MeOH
Text: Thus, the administration of the protamine/Compound of SEQ ID NO:9 adduct may need a suitable suspending agent; or it maybe injected as dry powder.
Therefore, suspension of the compound of SEQ ID NO:9 in the presence of protamine could still provide extended release effect without using pre-formed protamine/SEQ ID NO:9 adduct.

[5] = male, beagle, plasma, sc, 67 ug/kg, dog, subcutaneous 67 μg/kg, propylene glycol:phosphate buffer (50:50)
[6] = beagle, plasma, 67 ug/kg, dog, intravenous 67 μg/kg, Tables 6A-6C (6A vehicle 0.2 M Tris, pH 8.0)
[7] = beagle, plasma, sc, 67 ug/kg, dog, subcutaneous 67 μg/kg, Tables 6A-6C (vehicle 0.2 M Tris, pH 8.0)

For `CCc1cc(OC)ccc1-c1ccc(C[C@H](NC(=O)[C@H](CC(=O)O)NC(=O)[C@H](CO)NC(=O)[C@@H](NC(=O)[C@](C)(Cc2ccccc2F)NC(=O)[C@@H](NC(=O)CNC(=O)[C@H](CCC(=O)O)NC(=O)C(C)(C)NC(=O)[C@@H](N)Cc2c[nH]cn2)[C@@H](C)O)[C@@H](C)O)C(=O)N[C@@H](Cc2ccc(-c3ccccc3C)nc2)C(N)=O)cc1` [SEQ ID NO: 9] (H-H[Aib]EGT[αMePhe(2-F)]TSD[Bip(2'-Et-4'-OMe)][Ala(6-(2-MePh)pyridin-3-yl)]-NH2), the “Exposure/dose during ipGTT in ob/ob mice” value [1] was 18 nM * h/nmol/kg, the “% AUC Reduction in Plasma Glucose in an IP Glucose Tolerance Test after SC Injection of Compound” value (ob/ob mice; ob/ob mice, 10 nmol/kg, vs vehicle group) was −68% (p < 0.0001) and the “effect on postprandial plasma glucose (in words)” value (ob/ob mice; ob/ob mice) was “statistically significant decrease”. The “Potency in ob/ob mice, ED50” value (ob/ob mice) was 5 nmol/kg, the “Potency in ob/ob mice, ED50” value (ob/ob mice; listed as 9) was “ED50 = 5 nmoles/kg” and the solubility thermodynamic ([2]; aqueous buffer, 25° C., excess EDTA) was 18 µg/mL. For the same compound, the “solubility in the presence of Zn(II) / of the Zn adduct (in words)” value [2] was “continued to decrease until below the detection limit of HPLC”, the “Exposure in dogs (sc@67 μg/kg)” value ([3]; Table I, vehicle 0.2 M Tris buffer (pH 8.0)) was 0.452 µM·h and the “Vss relative to extracellular fluid” value ([3]; dog, iv, extracellular fluid 0.14 L/kg) was 71 % of extracellular fluid. The “systemic clearance as % of liver blood flow” value ([3]; dog, iv, liver blood flow 31 mL/min/kg) was 3.2 % of liver blood flow, the “Vss relative to vascular fluid” value ([3]; dog, iv, vascular fluid 0.05 L/kg) was 2 times of vascular fluid and the clearance ([3]; male, beagle, blood, 67 ug/kg, dog, intravenous 67 μg/kg, propylene glycol:phosphate buffer (50:50), read-out: CLB (systemic blood clearance)) was 0.9 ± 0.2 mL/min/kg. It also gave an MRT ([3]; male, beagle, plasma, 67 ug/kg, dog, intravenous 67 μg/kg, propylene glycol:phosphate buffer (50:50)) of 3 ± 1 h, a clearance ([3]; male, beagle, plasma, 67 ug/kg, dog, intravenous 67 μg/kg, propylene glycol:phosphate buffer (50:50), read-out: CLp) of 0.6 ± 0.1 mL/min/kg and a Vd ([3]; male, beagle, plasma, 67 ug/kg, dog, intravenous 67 μg/kg, propylene glycol:phosphate buffer (50:50), read-out: VSS) of 0.1 ± 0.03 L/kg. The Cmax [3, 5] was 90 ± 29 nM, the Tmax [3, 5] was 5 ± 1 h and the solubility [4] was > 50000 µg/mL.
For `CCc1cc(O)ccc1-c1ccc(C[C@H](NC(=O)[C@H](CC(=O)O)NC(=O)[C@H](CO)NC(=O)[C@@H](NC(=O)C(C)(Cc2ccccc2F)NC(=O)[C@@H](NC(=O)CNC(=O)[C@H](CCC(=O)O)NC(=O)C2(C)CCCN2C(=O)[C@H](Cc2c[nH]cn2)NC(=O)OC)[C@@H](C)O)[C@@H](C)O)C(=O)N[C@@H](Cc2ccc(-c3ccccc3C)nc2)C(N)=O)cc1` (stereo partly drawn) [SEQ ID NO: 158] (Moc-H[ξαMeP]EGT[ξαMePhe(2-F)]TSD[Phe(4-(2-Et-4-HO-Ph))][Ala(6-(2-MePh)pyridin-3-yl)]-NH2), the “Exposure/dose during ipGTT in ob/ob mice” value [1] was 11 nM * h/nmol/kg, the “effect on postprandial plasma glucose (in words)” value (ob/ob mice; ob/ob mice) was “statistically significant decrease” and the MRT [3, 6] was 4.9 ± 0.7 h. For the same compound, the AUC [3, 6] was 1.39 ± 0.227 µM·h, the clearance ([3]; beagle, plasma, 67 ug/kg, dog, intravenous 67 μg/kg, Tables 6A-6C (6A vehicle 0.2 M Tris, pH 8.0), read-out: CLp) was 0.51 ± 0.08 mL/min/kg and the half-life [3, 6] was 4.4 ± 0.4 h. For the same compound, the Cmax [3, 7] was 279 ± 82 nM, the MRT [3, 7] was 5.2 ± 1.5 h and the Tmax [3, 7] was 1.4 ± 0.7 h. The AUC [3, 7] was 1.47 ± 0.563 µM·h, the half-life [3, 7] was 3.9 ± 1.3 h and the bioavailability ([3]; beagle, plasma, dog, subcutaneous vs intravenous 67 μg/kg, Tables 6A-6C (vehicle 0.2 M Tris, pH 8.0)) was 110 ± 49%.
